Laboratory results taken from patent publication US20100166727A1, “S-Adenosylmethionine And Methylthioadensosine In Chemoprevention And Treatment Of Colon Polyps And Cancer” (UNIVERSITY OF SOUTHERN CALIFORNIA, priority 2007, published 2010).

Experiments:
MAT2A = MAT2A expression in NCM460 cells; format: cell-based, human; details: 5 mM SAMe or 1 mM MTA, 6 hrs
Protocol: Total RNA was isolated by the EZgeno total RNA isolation kit (Genemega, San Giego, Calif.), and subjected to reverse transcription (RT) by using M-MLV Reverse transcriptase (Invitrogen). 2 μl of RT product was subjected to quantitative real-time PCR analysis. The primers and TaqMan probes for MAT2A, MAT2β and Universal PCR Master Mix were purchased from ABI (Foster City, Calif.). Hypoxanthine phosphoribosyl-transferase 1 (HPRT1) and ubiquitin C (UBC) were used as housekeeping genes (48). The thermal profile consisted of 1 cycle at 95° C. for 15 minutes followed by 40 cycles at 95° C. for 15 seconds and at 60° C. for 1 minute. The expression of MAT2A and MAT2β was checked by normalizing the Ct of MAT2A and MAT2β to that of the control housekeeping gene (HPRT1 or UBC) (49). The delta Ct obtained was used to find the relative expression of MAT genes according to the formula: Relative expression=2·^ΔCt, where ΔCt=ΔCt of MAT genes in colon cancer or treated cells—ΔCt of MAT genes in normal colon or control cells.
NCM460 cell line was originally established in 1996 as the first non-malignant colonic epithelial cell line derived from the transverse colon (43). When first developed, cells formed both monolayer and in suspension, express villin and cytokeratin staining (43). […] The NCM460 cells in monolayer have features of transverse colon crypt cells (69). […]

HT-29 cells [1] = assay: Cell growth by MTT assay in HT-29 cells; format: cell-based, human
Protocol: Cell growth was measured by the cell growth determination kit MTT from Sigma (St. Louis, Mo.). The MTT assay measures the cell proliferation rate and reduction in cell viability. HT-29 or RKO cells (1×10^4/well) were plated in 96-well plates and treated with growth factors (all 100 ng/ml), SAMe (0.5 to 5 mM), MTA (0.5 to 1 mM), alone or in combination for 16 hrs in serum-free medium. To determine the effect of MAT2A RNAi on mitogen-induced changes in MTT, cells were first treated with RNAi for 48 hrs followed by mitogen treatment for another 24 hrs.

HT-29 cells [2] = assay: Cellular SAMe and MTA levels in HT-29 cells; format: cell-based, human
Protocol: (§1) HT-29 and RKO cells were obtained from the Cell Culture Core of the USC Liver Disease Research Center and grown according to instructions provided by the American Type Culture Collection (ATCC, Rockville, Md.). Prior to treatment with growth factors, SAMe or MTA, medium was changed to 0.1% FBS overnight.
(§2) Cellular SAMe and MTA levels were measured (51) and polyamine levels were determined (52).

HT-29 cells [3] = assay: Polyamine levels in HT-29 cells; format: cell-based, human; details: 6 hrs
Protocol: as §1, §2

[4] = test system: ornithine decarboxylase (ODC); assay: ODC expression by real-time PCR in HT-29 cells; format: cell-based, human; details: 6 hrs
[5] = test system: spermine synthase (SPM syn); assay: SPM syn expression by real-time PCR in HT-29 cells; format: cell-based, human; details: 6 hrs
NCM460 cells = assay: Toxicity and apoptosis in NCM460 normal colonic epithelial cells; format: cell-based, human
Protocol: In these experiments the total treatment duration was limited to 16 hrs to avoid the apoptotic effect. […] Apoptosis was measured by Hoechst staining or Annexin V and propidium iodide staining on flow cytometry.

c-FLIP = c-FLIP expression and caspase 8 activation in RKO cells; format: cell-based, human; details: 6 hrs, with concomitant caspase 8 activation
Protocol: FIG. 27. […] RKO cells were treated with SAMe (0.25-5 mM) or MTA (0.25-2 mM) for 6 hrs and c-FLIP isoform mRNA levels were measured using real-time PCR (A) and protein levels of c-FLIP and caspase 8 by Western blots (B).

Bcl-xL = Bcl-xL mRNA level in HT-29 cells; format: cell-based, human; details: SAMe 2 mM, 6 hrs
Protocol: (§3) SAMe and MTA induce apoptosis in liver cancer cells by the mitochondrial pathway (14). […] In liver cancer cells, SAMe and MTA induced selectively expression of Bcl-xs, a pro-apoptotic protein (67). We examined whether the same occurs in HT-29 cells. After 6 hrs of MTA (1 mM) treatment, Bcl-xL mRNA level fell by 53% (47±4% of control, results are mean±SE from 4 experiments, p<0.0005). […] This makes these agents particularly attractive in targeting colon cancer cells.

Bcl-xS = Bcl-xS mRNA level in HT-29 cells; format: cell-based, human; details: 6 hrs
Protocol: as §3

[6] = Intestinal SAMe levels in mice given SAMe or MTA in drinking water; details: mouse, in vivo
Protocol: Three-month old male C57/B6 mice were fed ad libitum a standard diet (Harland Tekiad irradiated mouse diet 7912, Madison, Wis.), caged individually and had free access to water supplemented with SAMe ([…]), MTA (75 mg/kg/d), phosphate buffered saline (vehicle for SAMe) or DMSO (0.2%, vehicle for MTA) for 6 days. SAMe and MTA were made fresh daily. The amount of water intake, body weight, and animal behavior were closely monitored. After 6 days, animals were sacrificed, intestine was cut open along the longitudinal axis, and mucosa was stripped from the intestine (46). Mucosa was weighed and a portion processed for SAMe measurement as described below, the rest snap frozen for subsequent RNA extraction.
as §2

MAT2β = assay: Colonic MAT2β mRNA in mice fed SAMe or MTA; format: in vivo; details: 150 mg/kg/d SAMe, 6 days
Protocol: FIG. 30. Effects of oral SAMe and MTA on colonic mRNA levels of MAT2A, MAT2 β, and […]. Mice were fed SAMe (150 to 450 mg/kg/d) or MTA (75 or 150 mg/kg/d) in drinking water for 6 days. Colonic mucosa was scrapped off and gene expression measured by real-time PCR.

C[S+](CC[C@H](N)C(=O)O)C[C@H]1O[C@@H](n2cnc3c(N)ncnc32)[C@H](O)[C@@H]1O (stereo partly shown) [SAMe, S-adenosylmethionine]
reduction of MAT2A expression (MAT2A): 40%
growth (HT-29 cells [1]; SAMe 5 mM, 24 hr): 71 % of control
growth, agent alone (HT-29 cells [1]; SAMe 0.5 to 5 mM, MTA 0.5 to 1 mM, 16 hrs): no effect on growth
mitogenic action of leptin, EGF and IGF-1 (HT-29 cells [1]; SAMe 0.5 to 5 mM, MTA 0.5 to 1 mM, 16 hrs, with growth factors): blocked the mitogenic action
increase of intracellular MTA levels after SAMe treatment (HT-29 cells [2]; 5 mM SAMe for 16 hrs): 19 fold
intracellular MTA levels after SAMe treatment (HT-29 cells [2]; 5 mM SAMe for 16 hrs): 1,906%
MTA level (HT-29 cells [2]; 6 hrs, SAMe 2 mM): 0.192 ± 0.036 nmol/mg protein
SAMe level (HT-29 cells [2]; 6 hrs, SAMe 2 mM): 1.44 ± 0.13 nmol/mg protein
MTA level (HT-29 cells [2]; 6 hrs, SAMe 5 mM): 0.354 ± 0.096 nmol/mg protein
SAMe level (HT-29 cells [2]; 6 hrs, SAMe 5 mM): 2.19 ± 0.21 nmol/mg protein
MTA level (HT-29 cells [2]; 16 hrs, SAMe 2 mM): 0.261 ± 0.035 nmol/mg protein
SAMe level (HT-29 cells [2]; 16 hrs, SAMe 2 mM): 1.28 ± 0.01 nmol/mg protein
MTA level (HT-29 cells [2]; 16 hrs, SAMe 5 mM): 0.934 ± 0.105 nmol/mg protein
SAMe level (HT-29 cells [2]; 16 hrs, SAMe 5 mM): 1.83 ± 0.01 nmol/mg protein
Putrescine (HT-29 cells [3]; SAMe 2 mM): 0.06 ± 0.01 nmol/mg protein
Spermidine (HT-29 cells [3]; SAMe 2 mM): 2.37 ± 0.02 nmol/mg protein
Spermine (HT-29 cells [3]; SAMe 2 mM): 12.39 ± 2.86 nmol/mg protein
Putrescine (HT-29 cells [3]; SAMe 5 mM): 0.01 ± 0.01 nmol/mg protein
Spermidine (HT-29 cells [3]; SAMe 5 mM): 1.90 ± 0.18 nmol/mg protein
Spermine (HT-29 cells [3]; SAMe 5 mM): 13.21 ± 2.58 nmol/mg protein
ODC expression ([4]; SAMe 2 mM): 1.1 ± 0.07 fold of control
ODC expression ([4]; SAMe 5 mM): 0.8 ± 0.04 fold of control
SPM syn expression ([5]; SAMe 2 mM): 1.1 ± 0.02 fold of control
SPM syn expression ([5]; SAMe 5 mM): 1.0 ± 0.01 fold of control
menadione (MQ)-induced toxicity in NCM460 cells (NCM460 cells): protected against menadione (MQ)-induced toxicity
c-FLIP expression (c-FLIP): lowered c-FLIP expression
Bcl-xL mRNA level (Bcl-xL): did not have an effect
Bcl-xS mRNA level (Bcl-xS): no effect on Bcl-xS mRNA level
SAMe level in proximal small intestine [6]: 800 % of control
increase in SAMe level in colonic mucosa [6]: ~200%
inhibition of MAT2β expression (MAT2β): 50%
